Measured values published in patent US20190231785A1, “PHOSPHODIESTERASE INHIBITOR TREATMENT” (Cyrano Therapeutics, Inc., priority 2012, published 2019).
Marks after values point to notes of the source that are not given here.

What was measured:
[1] = tested on: patients with hyposmia and hypogeusia; test: Subjective changes in smell and taste function by questionnaire, scale 0 to 100 (Example 8); assay type: in vivo, human; conditions: oral 200 to 800 mg/d; of 10 patients
Protocol: Subjective changes in smell and taste function under each study condition were measured by questionnaire before measurements of smell or taste function. Responses were graded on a scale from 0 to 100, with 0 reflecting no subjective response in overall sensory function; 100, return to normal sensory function; and values between 0 and 100 intermediate responses. Overall sensory function was defined as the ability to smell all odors and identify all tastants, although response intensity varied.
(§5) Values for the oral trial were taken from the last measurements made before discontinuation of oral drug treatment and before initiation of the intranasal trial. This period varied from 2 to 12 months after oral treatment initiation and reflected the maximal improvement in sensory function each patient experienced.

[2] = asthma and COPD; cited from earlier work
[3] = tested on: patients with hyposmia and hypogeusia; conditions: oral 200 to 800 mg/d
Protocol: Smell and taste functions under each study condition were measured by standardized psychophysical sensory testing techniques. Measurements included determination of detection thresholds (DTs), recognition thresholds (RTs), magnitude estimation (ME), and hedonic response (HR) for 4 odors (e.g., pyridine [dead fish], nitrobenzene [bitter almond], thiophene [petroleum], and amyl acetate [banana oil]) (olfactometry) and for 4 tastants (e.g., sodium chloride [salt], sucrose [sweet], hydrochloride [sour], and urea [bitter]) (gustometry). […] Each measurement was performed independent of any prior knowledge of response.
as §5
The mean and standard error of the mean for all values obtained at each study condition were compared. Differences were considered significant if P<0.05 by the unpaired t test. Paired comparison tests were also used with differences considered significant if P<0.05 by the t test.

asthmatic patients = test: sGaw after dry powder inhalation, dose escalating single blind study (Examples 5 and 6); conditions: 2 mg theophylline
Protocol: (§1) To test this theory, asthmatic patients are enrolled in a dose escalating single blind study. On arrival to the clinic, subjects are allowed to rest for 20 minutes before baseline measurements of FEV1 (six recordings) and sGaw (five recordings) are made. Subjects receive a dry powder dispenser loaded with a dose of 2 mg theophylline or a dry powder carrier. […] After each inhalation, measurements of sGaw are made at 1, 3, 5, 10, 15, 20, 25, and 30 minutes.
On completion of the last recording, subjects inhale a 200 μg dose of salbutamol from a metered inhaler and a further measurement of sGaw is made after 15 minutes. Subjects are also monitored for coughing and are questioned about the taste of the drug.
as §1, with “Asthmatic patients” for “To test this theory, asthmatic patients”, “of 1” for “of 2”, “mg IBMX formulated as a dry powder” for “mg theophylline”
On completion of the last recording, subjects inhale a 200 μg dose of salbutamol from a metered inhaler and a further measurement of sGaw mad after 15 minutes. Subjects are also be monitored for coughing and are questioned about the taste of the drug.

cAMP = test: Parotid saliva cAMP before and after oral theophylline (Example 2); assay type: in vivo, human; conditions: for parotid saliva cAMP: mean ± SEM
Protocol: (§2) Parotid saliva was collected from each patient by application of a Lashley cup over Stensen's duct with lingual stimulation by placement of concentrated lemon juice. Saliva was collected in plastic tubes and stored at −20° C. until assayed. cAMP and cGMP were measured in saliva by a sensitive 96 plate spectrophotometric assay (R&D Systems, Minneapolis, Minn.).
(§3) All patients were placed in a fixed design open label clinical trial with treatment with oral theophylline. Treatment consisted of fixed treatment periods of two-eight months with sequential doses of the drug at 200 mg, 400 mg and 600 mg. At termination of each of these intervals, patients returned to study site for reevaluation. At the end of each interval subjective responses to treatment were measured with a modification of the 0-100 scale previously used (vs). Subjective responses to treatment were graded on a sliding scale from −100-0-+100 with patients recording improvement (+0-+100), no improvement (0) or worsening (0-−100) of their overall smell function. If overall smell function improved ≥5% they were considered to improve clinically (1). If smell function improved <5% they were considered not to improve (1). At the end of each interval subjective measurements of smell function, measurements of DT, RT, ME and H and measurements of parotid saliva for levels of cAMP and cGMP were obtained. In addition, blood plasma was obtained by venipuncture, placed in ice into zinc free tubes which contained 100 mg zinc free heparin, centrifuged at 3000 rpm for 10-20 min, the plasma transferred to plastic PCR tubes and stored at −20° C. until assayed. Theophylline was assayed by a fluorescence polarization assay (Abbott, Chicago, Ill.), as previously described.
(§4) Data for the cyclic nucleotides from these 31 patients was not analyzed until the entire study of the 312 patients in Example 1 was assembled and analyzed in its entirety. After completion of these analyses, all data for parotid saliva cAMP and cGMP from all patients in whom salivary cAMP and cGMP were obtained were assembled. Levels of salivary cyclic nucleotides varied widely. Initially, without external criteria, there was no way to understand these disparate data. […] In a similar manner, measurements of each patient's plasma theophylline level at each dosage of theophylline (at 200 mg, 400 mg, 600 mg of theophylline) were categorized. The two patient groups were also analyzed post hoc with respect to type of smell loss and etiology of smell loss.

cGMP = test: Parotid saliva cGMP before and after oral theophylline (Example 2); assay type: in vivo, human; conditions: mean ± SEM
Protocol: as §2, §3, §4

patients with hyposmia = test: Classification of patients as improved or unimproved on theophylline (Example 2); assay type: in vivo, human
Protocol: as §3, §4
Differences in the characteristics between these two patient groups were analyzed with respect to each measurement obtained (Mean±SEM). Differences between mean±SEM were analyzed using Student t test and X2; differences of p≤5% were considered significant.

[4] = patients with unimproved smell function, oral 200 mg (9 patients)
[5] = of 31 patients on oral theophylline 200-600 mg

## Cn1c(=O)c2[nH]cnc2n(C)c1=O [theophylline]
[1]
  patients reporting no improvement: 4 patients
[2]
  concentrations at which anti-inflammatory effects are seen: less than 10 mg/L
[3]
  hyposmia (olfactometry overall): improved with 2 to 12 months of treatment
[3]; 2 to 12 months
  DTs and RTs for all odorants: decreased (more sensitive)
  HRs for all odorants: increased
  MEs for all odorants: increased (more sensitive)
Asthmatic patients
  increase in sGaw compared with 200 μg salbutamol: comparable to that produced by salbutamol
  sGaw above the baseline measurement after 30 minutes: 20%
  taste and coughing of the dry powder formulation: without the unpleasant taste or the induction of coughing
  time until sGaw baseline is reached: 1 h
cAMP; improved patients, oral 200 mg, not significant
  increase of saliva cAMP above baseline: 10%
cAMP; improved patients, oral 400 mg, not statistically significant
  increase of saliva cAMP over baseline: 40%
cAMP; improved patients, oral 600 mg, significant
  increase of saliva cAMP above initial values: 67%
cAMP; patients with improved smell function, oral 200 mg (16 patients)
  parotid saliva cAMP: 0.96 ± 0.13 pmol/mL
cAMP; [4]
  parotid saliva cAMP: 0.78 ± 0.26 pmol/mL
cAMP; patients with unimproved smell function, oral 400 mg (5 patients)
  parotid saliva cAMP: 0.95 ± 0.26 pmol/mL
cAMP; patients with unimproved smell function, oral 600 mg (9 patients)
  parotid saliva cAMP: 0.56 ± 0.21 pmol/mL
cGMP; patients with improved smell function, oral 200 mg (15 patients)
  parotid saliva cGMP: 0.08 ± 0.016 pmol/mL
cGMP; [4]
  parotid saliva cGMP: 0.07 ± 0.018 pmol/mL
cGMP; patients with unimproved smell function, oral 400 mg (4 patients)
  parotid saliva cGMP: 0.05 ± 0.014 pmol/mL
cGMP; patients with unimproved smell function, oral 600 mg (5 patients)
  parotid saliva cGMP: 0.04 ± 0.07 pmol/mL
Patients with hyposmia; [5]
  patients identified as having improved smell function: 20 patients
  patients who did not improve: 11 patients
Patients with hyposmia; oral theophylline, Example 2
  improved patients exhibiting Type II hyposmia: 95%
  patient number, improved, etiology PIHH: 6
  patient number, improved, etiology allergic rhinitis (AR): 8
  patient number, improved, etiology head injury (HI): 3
  patient number, improved, etiology other: 3
  patient number, improved, smell loss Type I: 1
  patient number, improved, smell loss Type II: 19^a
  patient number, unimproved, etiology PIHH: 0
  patient number, unimproved, etiology allergic rhinitis (AR): 8
  patient number, unimproved, etiology head injury (HI): 3
  patient number, unimproved, etiology other: 0
  patient number, unimproved, smell loss Type I: 4
  patient number, unimproved, smell loss Type II: 7
  unimproved patients exhibiting Type I hyposmia: 57%
